Experiments:
[1] = target: T1, SpCas9 (Streptococcus pyogenes, UniProt Q99ZW2); assay: eGFP-disruption assay; assay type: cell-based
[2] = target: T1, SpCas9; assay: in vitro DNA cleavage assay; assay type: biochemical

T1 sequence (Q99ZW2 whole entry): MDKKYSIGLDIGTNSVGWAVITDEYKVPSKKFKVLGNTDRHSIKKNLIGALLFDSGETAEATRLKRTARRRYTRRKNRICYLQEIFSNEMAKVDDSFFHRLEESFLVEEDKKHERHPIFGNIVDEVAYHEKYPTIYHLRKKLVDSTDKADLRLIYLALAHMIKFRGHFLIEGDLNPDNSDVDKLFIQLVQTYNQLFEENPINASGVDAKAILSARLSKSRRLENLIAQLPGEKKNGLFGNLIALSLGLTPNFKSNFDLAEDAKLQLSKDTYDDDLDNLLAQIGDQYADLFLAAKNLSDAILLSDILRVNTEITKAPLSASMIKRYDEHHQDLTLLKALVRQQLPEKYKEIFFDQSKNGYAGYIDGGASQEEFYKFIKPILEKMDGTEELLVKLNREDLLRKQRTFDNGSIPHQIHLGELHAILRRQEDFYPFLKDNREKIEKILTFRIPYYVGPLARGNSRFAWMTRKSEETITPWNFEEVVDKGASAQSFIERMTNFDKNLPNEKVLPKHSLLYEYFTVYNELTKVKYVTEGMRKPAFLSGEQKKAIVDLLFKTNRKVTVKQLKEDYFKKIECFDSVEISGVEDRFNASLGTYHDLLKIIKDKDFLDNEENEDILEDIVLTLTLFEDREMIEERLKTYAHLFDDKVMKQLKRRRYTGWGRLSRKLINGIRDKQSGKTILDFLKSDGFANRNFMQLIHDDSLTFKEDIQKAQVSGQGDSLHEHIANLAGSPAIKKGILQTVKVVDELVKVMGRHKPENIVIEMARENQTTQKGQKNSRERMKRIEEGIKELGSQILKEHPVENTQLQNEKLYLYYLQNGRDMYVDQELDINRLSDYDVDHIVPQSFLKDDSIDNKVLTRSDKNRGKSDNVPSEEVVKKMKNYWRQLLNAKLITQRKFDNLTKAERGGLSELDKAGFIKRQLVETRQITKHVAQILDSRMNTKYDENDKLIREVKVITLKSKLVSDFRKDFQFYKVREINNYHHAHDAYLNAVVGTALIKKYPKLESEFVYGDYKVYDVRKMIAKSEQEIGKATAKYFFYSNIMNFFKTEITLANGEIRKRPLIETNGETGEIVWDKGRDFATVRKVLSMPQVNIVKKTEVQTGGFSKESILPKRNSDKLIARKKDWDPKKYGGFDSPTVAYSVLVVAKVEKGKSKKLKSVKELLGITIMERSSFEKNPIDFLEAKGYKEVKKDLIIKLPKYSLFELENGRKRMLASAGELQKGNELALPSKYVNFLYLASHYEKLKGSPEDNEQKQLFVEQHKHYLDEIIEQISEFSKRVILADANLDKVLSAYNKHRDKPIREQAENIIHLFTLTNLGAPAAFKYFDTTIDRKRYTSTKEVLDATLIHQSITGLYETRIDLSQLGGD

Question: Which EC50 [1] does the source give for COc1cccc(-c2ccc3c(c2)[C@H]2[C@H](CCN2C(=O)Cc2ccncc2)[C@H](CO)N3C)c1 [BRD3433] here?
Answer: 9.3 µM

Question: For Cc1ccc(S(=O)(=O)N2CC[C@@H]3[C@H](CO)Nc4ccc(-c5ccccc5F)cc4[C@@H]32)cc1 [BRD0539], which IC50 [2] is on record?
Answer: 22 µM

Source: article PMC7182439 (Cell, 2019)
